The test system of one assay is GIP. The conditions noted are these: disclosed in WO 01/87341; read-out: IC50 (inhibiting the functions of GIP); cited from earlier work.
A further assay has as its target T1, human GIP receptor (Homo sapiens, UniProt P48546).
T1 construct: expressed in transfected cells; host or cells: CHO cells
T1 sequence (P48546 22-466): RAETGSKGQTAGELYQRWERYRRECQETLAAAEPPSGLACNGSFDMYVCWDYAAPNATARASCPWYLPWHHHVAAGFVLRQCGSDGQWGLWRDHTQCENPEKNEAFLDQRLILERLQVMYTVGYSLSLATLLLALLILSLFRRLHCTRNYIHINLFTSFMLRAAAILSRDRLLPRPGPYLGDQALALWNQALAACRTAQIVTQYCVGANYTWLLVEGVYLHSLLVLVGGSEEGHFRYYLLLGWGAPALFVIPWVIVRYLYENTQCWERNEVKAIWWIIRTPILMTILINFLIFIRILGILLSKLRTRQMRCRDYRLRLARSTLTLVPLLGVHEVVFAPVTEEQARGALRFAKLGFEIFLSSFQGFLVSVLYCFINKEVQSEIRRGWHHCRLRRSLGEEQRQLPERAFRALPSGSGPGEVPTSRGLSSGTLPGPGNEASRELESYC
Description: Inhibition of cAMP production by GIP stimulation in human GIP receptor-expressing CHO cells. Format: cell-based. Particulars: for IC50: 100 pM GIP, 37° C., 30 minutes, human GIP receptor-expressing CHO cells, read-out: IC50 (concentration of the compound at which the production of cAMP by GIP is inhibited by 50%). From the text:
The system for evaluation of GIP function inhibitors (GIP receptor antagonists and the like) made use of the following method wherein their inhibitory activity on production of cAMP as GIP intracellular transmitter was used as an indicator.
According to a method of Kubota et al. (Diabetes 45: 1701–1705, 1996), human GIP receptor-expressing cells prepared by introducing GIP cDNA into CHO cells were used. First, cAMP was produced by stimulation with 100 pM GIP in the presence/absence of the test chemical at 37° C. for 30 minutes in phosphate-buffered saline, pH 7.4, containing 1 mM isobutylmethylxanthine, 5.6 mM glucose and 0.5% bovine serum albumin. Then, using a cAMP assay system (PE Biosystems), the cells were lyzed with an attached lysis buffer, the amount of cAMP accumulated in the cells was measured, and the inhibitory activity of the test sample on the functions of GIP was determined. To verify the action of the test sample completely irrelevant to the action on GIP receptor, the inhibitory effect of the test sample on formation of cAMP upon stimulating, with 5 μM forskolin, CHO cells into which the GIP receptor gene had not been introduced (cells not expressing the GIP receptor) was also confirmed. The inhibitory activity was expressed in terms of IC50 (concentration of the compound at which the production of cAMP by GIP is inhibited by 50%). A compound not showing any inhibitory activity on formation of cAMP in the cells not expressing the GIP receptor, but inhibiting the formation of cAMP by stimulation with GIP, in the cells expressing the GIP receptor, was regarded as an active compound.

With `Cc1cc(O)n2nc(-c3ccccc3)c(Br)c2n1` [3-bromo-5-methyl-2-phenylpyrazolo[1,5-a]pyrimidin-7-ol], the IC50 in the assay with GIP was about 40000 nM. For `O=C(N/N=C/c1ccccc1Br)c1ccc(O)cc1` [Compound 1], at human GIP receptor, the IC50 came out at 19000 nM. Also, the “inhibition of cAMP formation upon stimulation with GIP (functions of GIP)” value at human GIP receptor (cells expressing the GIP receptor, result in words) is on record as “inhibited the functions of GIP though at low levels”. `Cc1cc(C)c(C)c(Cn2ccc3c(/C=N/NC(=O)c4ccc(O)c(C#N)c4)cccc32)c1C` [Compound 2, 3-Cyano-4-hydroxybenzoic acid [1-(2,3,5,6-tetramethylbenzyl)indol-4-yl]methylidene hydrazide]: at human GIP receptor, the IC50 came to 6.3 nM.

For `COc1ccc(/C=N/NC(=O)c2ccc(O)c(Cl)c2)c2ccccc12` [Compound 3, 3-Chloro-4-hydroxybenzoic acid (4-methoxynaphthalen-1-yl)methylidene hydrazide], on human GIP receptor, the IC50 came to 560 nM.

`O=C(N/N=C/c1ccc2c(ccn2Cc2ccc(Cl)s2)c1)c1ccc(O)c(Cl)c1` [Compound 4, 3-Chloro-4-hydroxybenzoic acid [1-(5-chlorothiophen-2-ylmethyl)-1H-indol-5-yl]methylidene hydrazide]: on human GIP receptor, the IC50 came to 440 nM.

The record behind these values is patent publication US7081473B2, “Agent for preventing/ameliorating obesity comprising methylidene hydrizide compound as active ingredient” (Sanwa Kagaku Kenkyusho Co., Ltd., priority 2002, dated 2006).
